B1: DynF from Micromonospora chersina ATCC53710 (natural protein)
chain: MSTKSVLFGRPVQTEGVPNVYAGAPVVPWTPPEPGIDNLGINSIDTFAVPGVGEYTVAFDGWVRVVRSPSTSGEWADAEVYTNLIEMKMVGECEELGKITVTLNPDCLSAGQIRTPFDPYAGEGPSAKACRMAVGAIFDMPKLGLKLMNREPIILTIDDVRSIPPAGAPGKGQIYRMMPLLDVNDPDGQPVAYLTSLRFNMGGYLKPDQM
notes: DynF, Micromonospora chersina ATCC53710, protein of unknown function from the dynemicin biosynthetic gene cluster; GenBank ACB47058.1; the insert primers run from the ATG to the TGA stop codon; The tag mgsshhhhhhenlyfq/s was cut by TEV protease at the slash, so one serine of the tag stays before Met1 (211 residues a chain; 418 of 422 residues built for two chains); Vector pNIC28-Bsa4 (Addgene …)

Tests used:
[1] = target: T1, DynF (Micromonospora chersina, UniProt B2BM43); test: X-ray crystal structure ([…] Å); GC-MS of acetonitrile extract; assay type: binding; settings: co-purified from E. coli; bound inside the beta-barrel cavity of each protomer
T1 construct: full-length, N-terminal 6xHis tag cleaved with TEV protease (one extra Ser before Met1); E. coli BL21 (DE3); dimer
T1 sequence (B2BM43 1-210): B1 chain

[2] = target: the molecule itself; test: crystal structure; sitting-drop vapor diffusion, 293 K, 25%(w/v) PEG 1500, 0.1 M PCB buffer pH 7.0; space group C222(1); two molecules in the asymmetric unit; palmitic acid bound

Molecule | X-ray crystal structure (1.50 Å); GC-MS of acetonitrile extract [1] | binding result [2]
CCCCCCCCCCCCCCCC(=O)O [palmitic acid] | confirmed by gas chromatography–mass spectrometry (GC-MS) as palmitic acid | 
B1 |  | binds
